Test results as given in patent publication US7524832B2, “Combretastatin A-4 phosphate prodrug mono-and di-organic amine salts, mono-and di-amino acid salts and mono-and di-amino acid ester salts” (priority 2000, dated 2009).
Counter-ions that a name gives are not always drawn.

Columns and labels:
[1] = solid-state chemical stability; type: physicochemical; conditions: ambient and accelerated conditions of temperature and humidity
physchem = conditions: 25 °C, thermodynamic from solid
[2] = hygroscopicity (moisture sorption/desorption); type: physicochemical; conditions: 25° C., ambient and high humidity conditions
Method: The data was obtained using a VTI Model MB-300W Moisture balance with relative humidity levels from 10% to 90% in increments of 10%. The maximum equilibration time at each humidity was set at 4 hours.
As used herein, the term “nonhygroscopic”, in reference to a compound, preferably denotes no measurable weight gain per weight of compound as measured above.
This was an unexpected result, because other salt forms of CA4P free acid are hygroscopic under similar conditions. Variable relative humidity-X-ray diffraction (“RH-XRD”) experiments have shown that the powder pattern remains unchanged on exposure to different humidities at 25° C.

microtubulin assembly = conditions: cited from earlier work
[3] = system: murine L1210 lymphocytic leukemia cell line; conditions: NCI murine L1210; cited from earlier work
[4] = cited from earlier work
[5] = system: murine P338 lymphocytic leukemia cell line; conditions: NCI murine P338; cited from earlier work

SMILES	chemical stability in the solid-state [1]	solubility (physchem; pH 4.8, water) [mg/mL]	solubility (physchem; pH 8.2, aqueous buffer) [mg/mL]	hygroscopicity [2]	inhibition of microtubulin assembly (microtubulin assembly)	activity against L1210 lymphocytic leukemia cell line [3]	solubility in water [4]	activity against P338 lymphocytic leukemia cell line [5]
COc1ccc(/C=C\c2cc(OC)c(OC)c(OC)c2)cc1OP(=O)(O)O [CA4P mono TRIS salt, CA4P mono-tromethamine salt]	good chemical stability	3.37	191	practically nonhygroscopic	–	–	–	–
COc1ccc(/C=C\c2cc(OC)c(OC)c(OC)c2)cc1O [combretastatin A-4]	–	–	–	–	potent inhibitor	significantly active	essentially insoluble in water	significantly active
